# pKd: −log10 of the molar value.
# Target: T1, STAT3 (signal transducer and activator of transcription 3) (Homo sapiens, UniProt P40763)
# T1 construct: Recombinant human STAT3 protein
# Assay: SPR, STAT3 immobilized on C5 sensor chip, PSD-A […]
# Assay type: binding
# T1 sequence (P40763 2-770): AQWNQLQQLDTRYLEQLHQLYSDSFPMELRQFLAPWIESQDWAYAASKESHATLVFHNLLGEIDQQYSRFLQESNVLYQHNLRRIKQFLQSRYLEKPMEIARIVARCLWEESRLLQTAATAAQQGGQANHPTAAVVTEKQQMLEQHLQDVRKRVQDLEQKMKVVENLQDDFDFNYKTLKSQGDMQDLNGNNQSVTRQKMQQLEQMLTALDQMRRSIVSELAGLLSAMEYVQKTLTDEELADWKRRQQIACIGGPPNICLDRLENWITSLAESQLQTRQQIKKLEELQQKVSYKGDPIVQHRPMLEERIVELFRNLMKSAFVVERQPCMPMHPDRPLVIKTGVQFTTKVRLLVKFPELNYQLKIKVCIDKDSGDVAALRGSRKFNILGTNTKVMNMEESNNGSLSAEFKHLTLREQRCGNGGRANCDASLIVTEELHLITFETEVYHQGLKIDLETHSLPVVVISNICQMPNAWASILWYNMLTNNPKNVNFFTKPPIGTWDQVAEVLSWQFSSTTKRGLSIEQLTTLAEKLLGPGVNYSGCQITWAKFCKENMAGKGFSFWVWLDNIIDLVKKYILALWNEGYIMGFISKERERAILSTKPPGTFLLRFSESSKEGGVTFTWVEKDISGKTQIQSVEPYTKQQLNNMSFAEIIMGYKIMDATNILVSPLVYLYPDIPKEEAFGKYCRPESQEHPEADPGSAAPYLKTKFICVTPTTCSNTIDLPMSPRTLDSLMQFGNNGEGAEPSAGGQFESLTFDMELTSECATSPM
smiles,measurement,value
"C[C@@H]1O[C@@H](O[C@@H]2C=C3CC[C@@H]4[C@H](CC[C@]5(C)[C@@H](c6ccc(=O)oc6)CC[C@]45O)[C@@]3(C)CC2)[C@H](O)[C@H](O)[C@H]1O [PSD-A, Proscillaridin A]",pKd,~6.80
